Data taken from ChEMBL document CHEMBL5046233, “Nitroxoline and its derivatives are potent inhibitors of metallo-β-lactamases” (Eur J Med Chem, 2022).
≈ marks a conversion by molar mass, not a printed value. Calls of active or inactive are those of the source. The calls are words filed in the database; no cut-off is given here.

Columns and labels:
[1] = tested on: Bacteria; experiment: Inhibition of recombinant NDM-1 (unknown origin) using fluorocillin as substrate in presence of ZnCl2 incubated for 30 mins by fluorescence based assay
[2] = tested on: Klebsiella pneumoniae; experiment: Potentiation of meropenem-induced antibacterial activity against Klebsiella pneumoniae clinical isolate T2301 expressing NDM-1 assessed as meropenem MIC at 32 mg/L by CLSI protocol based broth microdilution assay; type: functional
[3] = tested on: Bacteria; experiment: Inhibition of recombinant IMP-1 (unknown origin) using fluorocillin as substrate at 3 uM incubated for 30 mins by fluorescence based assay
[4] = tested on: Escherichia coli; experiment: Potentiation of ceftazidime-induced antibacterial activity against Escherichia coli clinical isolate T2228 expressing VIM-1 assessed as ceftazidime MIC at 32 mg/L by CLSI protocol based broth microdilution assay; type: functional
[5] = tested on: Bacteria; experiment: Inhibition of recombinant VIM-1 (unknown origin) using fluorocillin as substrate at 3 uM incubated for 30 mins by fluorescence based assay
[6] = tested on: Escherichia coli; experiment: Potentiation of imipenem-induced antibacterial activity against Escherichia coli T2351 expressing NDM-5 assessed as imipenem MIC at 32 mg/L by CLSI protocol based broth microdilution assay; type: functional
[7] = tested on: Bacteria; experiment: Inhibition of recombinant VIM-1 (unknown origin) using fluorocillin as substrate at 10 uM incubated for 30 mins by fluorescence based assay
[8] = tested on: Escherichia coli; experiment: Potentiation of imipenem-induced antibacterial activity against Escherichia coli T2435 expressing KPC-2 assessed as fold change in imipenem MIC at 32 mg/L by CLSI protocol based broth microdilution assay; type: functional
[9] = tested on: Serratia marcescens; experiment: Potentiation of imipenem-induced antibacterial activity against Serratia marcescens T2352 expressing NDM-1 assessed as fold change in imipenem MIC at 32 mg/L by CLSI protocol based broth microdilution assay; type: functional
[10] = tested on: Klebsiella pneumoniae; experiment: Potentiation of cefuroxime-induced antibacterial activity against Klebsiella pneumoniae clinical isolate T2301 expressing NDM-1 assessed as cefuroxime MIC at 32 mg/L by CLSI protocol based broth microdilution assay; type: functional
[11] = tested on: Escherichia coli; experiment: Potentiation of imipenem-induced antibacterial activity against Escherichia coli clinical isolate T2228 expressing VIM-1 assessed as fold change in imipenem MIC at 32 mg/L by CLSI protocol based broth microdilution assay; type: functional
[12] = tested on: Klebsiella pneumoniae; experiment: Synergistic antibacterial activity against Klebsiella pneumoniae clinical isolate T2301 expressing NDM-1 assessed as fractional inhibitory concentration index in presence of imipenem by checkerboard assay; type: functional
[13] = tested on: Klebsiella pneumoniae; experiment: Potentiation of imipenem-induced antibacterial activity against Klebsiella pneumoniae T2432 expressing KPC-9 assessed as fold change in imipenem MIC at 32 mg/L by CLSI protocol based broth microdilution assay; type: functional
[14] = tested on: Pseudomonas aeruginosa; experiment: Potentiation of imipenem-induced antibacterial activity against Pseudomonas aeruginosa T2283 expressing VIM-2 assessed as fold change in imipenem MIC at 32 mg/L by CLSI protocol based broth microdilution assay; type: functional
[15] = Inhibition of recombinant NDM-1 (unknown origin) using fluorocillin as substrate at 30 uM incubated for 30 mins by fluorescence based assay; conditions: Bacteria
[16] = tested on: Pseudomonas aeruginosa; experiment: Potentiation of imipenem-induced antibacterial activity against Pseudomonas aeruginosa T2282 expressing VIM-2 assessed as fold change in imipenem MIC at 32 mg/L by CLSI protocol based broth microdilution assay; type: functional
[17] = tested on: Enterobacter cloacae; experiment: Potentiation of imipenem-induced antibacterial activity against Enterobacter cloacae T2311 expressing NDM-1 assessed as imipenem MIC at 32 mg/L by CLSI protocol based broth microdilution assay; type: functional
[18] = tested on: Pseudomonas aeruginosa; experiment: Potentiation of imipenem-induced antibacterial activity against Pseudomonas aeruginosa T1098 expressing IMP-7 assessed as imipenem MIC at 32 mg/L by CLSI protocol based broth microdilution assay; type: functional
[19] = tested on: Klebsiella pneumoniae; experiment: Potentiation of imipenem-induced antibacterial activity against Klebsiella pneumoniae clinical isolate T2301 expressing NDM-1 assessed as fold change in imipenem MIC at 32 mg/L by CLSI protocol based broth microdilution assay; type: functional
[20] = tested on: Klebsiella pneumoniae; experiment: Potentiation of imipenem-induced antibacterial activity against Klebsiella pneumoniae T2216 expressing VIM-1 assessed as imipenem MIC at 32 mg/L by CLSI protocol based broth microdilution assay; type: functional
[21] = tested on: Enterobacter cloacae; experiment: Potentiation of imipenem-induced antibacterial activity against Enterobacter cloacae T2218 expressing GIM-1 assessed as fold change in imipenem MIC at 32 mg/L by CLSI protocol based broth microdilution assay; type: functional
[22] = tested on: Klebsiella pneumoniae; experiment: Potentiation of ceftazidime-induced antibacterial activity against Klebsiella pneumoniae clinical isolate T2301 expressing NDM-1 assessed as ceftazidime MIC at 32 mg/L by CLSI protocol based broth microdilution assay; type: functional
[23] = tested on: Escherichia coli; experiment: Potentiation of imipenem-induced antibacterial activity against Escherichia coli T2544 expressing VIM-1 assessed as imipenem MIC at 32 mg/L by CLSI protocol based broth microdilution assay; type: functional
[24] = Cytotoxicity against human HUVEC cells assessed as metabolic activity measured after 24 hrs by cell-titer blue assay; type: toxicity, cell-based
[25] = tested on: Enterobacter cloacae; experiment: Potentiation of imipenem-induced antibacterial activity against Enterobacter cloacae T2353 expressing VIM-1 assessed as imipenem MIC at 32 mg/L by CLSI protocol based broth microdilution assay; type: functional
[26] = tested on: Serratia marcescens; experiment: Potentiation of imipenem-induced antibacterial activity against Serratia marcescens T2352 expressing NDM-1 assessed as imipenem MIC at 32 mg/L by CLSI protocol based broth microdilution assay; type: functional
[27] = tested on: Pseudomonas aeruginosa; experiment: Potentiation of imipenem-induced antibacterial activity against Pseudomonas aeruginosa T2325 expressing IMP-1 assessed as imipenem MIC at 32 mg/L by CLSI protocol based broth microdilution assay; type: functional
[28] = tested on: Bacteria; experiment: Inhibition of recombinant IMP-1 (unknown origin) using fluorocillin as substrate at 10 uM incubated for 30 mins by fluorescence based assay
[29] = tested on: Pseudomonas aeruginosa; experiment: Potentiation of imipenem-induced antibacterial activity against Pseudomonas aeruginosa T2325 expressing IMP-1 assessed as fold change in imipenem MIC at 32 mg/L by CLSI protocol based broth microdilution assay; type: functional
[30] = tested on: Pseudomonas aeruginosa; experiment: Potentiation of imipenem-induced antibacterial activity against Pseudomonas aeruginosa T2357 expressing VIM-1 assessed as fold change in imipenem MIC at 32 mg/L by CLSI protocol based broth microdilution assay; type: functional
[31] = tested on: Klebsiella pneumoniae; experiment: Potentiation of imipenem-induced antibacterial activity against Klebsiella pneumoniae T2432 expressing KPC-9 assessed as imipenem MIC at 32 mg/L by CLSI protocol based broth microdilution assay; type: functional
[32] = tested on: Pseudomonas aeruginosa; experiment: Potentiation of imipenem-induced antibacterial activity against Pseudomonas aeruginosa T1098 expressing IMP-7 assessed as fold change in imipenem MIC at 32 mg/L by CLSI protocol based broth microdilution assay; type: functional
[33] = tested on: Klebsiella pneumoniae; experiment: Antimicrobial activity against Klebsiella pneumoniae T2301 expressing NDM-1 assessed as assessed as inhibition of bacterial growth at 0.5XMIC measured after 24 hrs by time-kill assay; type: functional, organism-based
[34] = tested on: Klebsiella pneumoniae; experiment: Potentiation of ciprofloxacin-induced antibacterial activity against Klebsiella pneumoniae clinical isolate T2301 expressing NDM-1 assessed as ciprofloxacin MIC at 32 mg/L by CLSI protocol based broth microdilution assay; type: functional
[35] = tested on: Enterobacter cloacae; experiment: Potentiation of imipenem-induced antibacterial activity against Enterobacter cloacae T2218 expressing GIM-1 assessed as imipenem MIC at 32 mg/L by CLSI protocol based broth microdilution assay; type: functional

Q: Which results are given for `N#CCN(Cc1ccccc1)Cc1cc([N+](=O)[O-])c2cccnc2c1O`?
A: inhibition [1]: inactive; MIC [2]: 0.25 µg/mL; inhibition [3]: 59%; MIC [4]: 0.06 µg/mL; inhibition [5]: 98%; MIC [6]: 1 ng/mL; inhibition [7]: 100%; fold change (FC) [8]: 1; fold change (FC) [9]: 1024; MIC [10]: 4.1 µg/mL; fold change (FC) [11]: 8; fractional inhibitory concentration index (FICI) [12]: 0.265; fold change (FC) [13]: 2; fold change (FC) [14]: 32; inhibition [15]: 96%; fold change (FC) [16]: 32; MIC [17]: 0.5 ng/mL; MIC [18]: 0.016 µg/mL; fold change (FC) [19]: 64; MIC [20]: 0.5 ng/mL; fold change (FC) [21]: 4; MIC [22]: 0.064 µg/mL; MIC [23]: 0.5 ng/mL; IC50 at 24 h [24]: 45 µg/mL (≈ 129 µM); MIC [25]: 1 ng/mL; MIC [26]: 0.25 µg/mL; MIC [27]: 1 ng/mL; inhibition [28]: 93%; fold change (FC) [29]: 32; fold change (FC) [30]: 32; MIC [31]: 0.016 µg/mL; fold change (FC) [32]: 8; Activity [33]: inactive; MIC [34]: 0.128 µg/mL; MIC [35]: 0.5 ng/mL
